Results as given in paper PMC5537696 (2017).

How the values were obtained:
[1] = system: LLA (long loop ATP hairpin aptamer) (DNA, aptamer) CACCTGGGGGAGTATTGCGGAGGAAGGTTTTTTTTTTTTTTTTTTTTTTTTTTTTTTTTCCAGGTGTT; assay: surface plasmon field-enhanced fluorescence titration; conditions: 6 mM MgCl2; 10 mM Tris pH 7.4 (HAB); aptamer immobilised on gold; up to 12 mM guanosine
[2] = system: SLA (short loop ATP hairpin aptamer) (DNA, aptamer, PEG6 spacer between 29 and 30) CACCTGGGGGAGTATTGCGGAGGAAGGTTCCAGGTG; assay: surface plasmon field-enhanced fluorescence titration, Langmuir isotherm; conditions: 6 mM MgCl2, 10 mM Tris pH 7.4 (HAB)
[3] = system: LLA (long loop ATP hairpin aptamer) (DNA, aptamer) CACCTGGGGGAGTATTGCGGAGGAAGGTTTTTTTTTTTTTTTTTTTTTTTTTTTTTTTTCCAGGTGTT; assay: as above; conditions: 6 mM MgCl2, 10 mM Tris pH 7.4 (HAB)
[4] = aptamer immobilised, fit limited to ATP ≤2 mM, full curve deviates from Langmuir

Nc1nc2c(ncn2[C@@H]2O[C@H](CO)[C@@H](O)[C@H]2O)c(=O)[nH]1
binding [1]: no

Nc1ncnc2c1ncn2[C@@H]1O[C@H](CO)[C@@H](O)[C@H]1O
Kd ([2]; aptamer immobilised on gold): 90 µM | Kd ([3]; aptamer immobilised on gold): 50 µM

Nc1ncnc2c1ncn2[C@@H]1O[C@H](COP(=O)(O)OP(=O)(O)OP(=O)(O)O)[C@@H](O)[C@H]1O
Kd [2, 4]: 300 µM | Kd [3, 4]: 120 µM
